A short description of series [1]: Neurotoxicity in mouse HT-22 cells assessed as reduction in cell viability at 50 uM. In kind it is toxicity, cell-based. The settings on record: ht-22, 50 µM.
Series [2] deals with T1, Cholinesterase (Homo sapiens, UniProt P06276). The series can be described thus: Inhibition of human BChE using butyrylthiocholineiodide as substrate preincubated for 5 mins followed by substrate addition and measured immediately by Ellmans method. For orientation: DTNB colorimetry detects thiols as they appear.
Series [3] deals with T1, Cholinesterase. The series can be described thus: Stability of compound assessed as BChE(unknown origin)-mediated compound hydrolysis at 10 uM by fluorescence based analysis. In kind it is ADME.
In series [4] the target is T1, Cholinesterase. The series can be described thus: Binding affinity to BChE in human SH-SY5Y cells at 10 uM incubated for 1 hrs by fluorescence based confocal laser scanning microscopic analysis. In kind it is cell-based.
Series [5] has as its target T1, Cholinesterase. Kind of series: Binding affinity to BChE in human LN-229 cells at 10 uM incubated for 1 hrs by fluorescence based confocal laser scanning microscopic analysis. In kind it is cell-based.
Series [6] addresses Cholinesterase (Mus musculus) (UniProt Q03311). Kind of series: Binding affinity to BChE in mouse HT-22 cells at 10 uM incubated for 1 hrs by fluorescence based confocal laser scanning microscopic analysis. In kind it is cell-based.
The test system of series [7] is PC-12. Kind of series: Binding affinity to BChE in rat PC-12 cells at 10 uM incubated for 1 hrs by fluorescence based confocal laser scanning microscopic analysis. In kind it is cell-based.
The subject of series [8] is PC-12. The series can be described thus: Binding affinity to BChE in rat PC-12 cells assessed as increase in fluorescence intensity incubated for 1 hrs by fluorescence based confocal laser scanning microscopic analysis. In kind it is cell-based. The settings on record: dose 1-10 µM.
In series [9] the test system is PC-12. The series can be described thus: Binding affinity to BChE in rat PC-12 cells assessed as increase in fluorescence intensity at 10 uM incubated for 24 hrs by fluorescence based confocal laser scanning microscopic analysis. In kind it is cell-based.
Series [10] can be described thus: Drug uptake in HEK293T cells transfected with BChE siRNA assessed as increase in fluorescence intensity by fluorescence based confocal laser scanning microscopic analysis. In kind it is ADME, cell-based. The settings on record: human, hek-293t.
Series [11] has as its system SH-SY5Y. The series can be described thus: Neuroprotective activity against amyloid-beta (1 to 42)-induced cell death in human SH-SY5Y cells assessed as increase in cell survival at 10 to 50 uM preincubated with compound for 2 hrs followed by amyloid beta (1 to 42) addition and measured after 24 hrs by MTT assay. In kind it is functional, cell-based. The following applies: dose 10-50 µM, time 26.0 hrs. (Formazan colour is commonly taken as a measure of viable cells.)

Series [12] concerns SH-SY5Y. Kind of series: Neuroprotective activity against amyloid-beta (1 to 42)-induced human SH-SY5Y cells assessed as increase in ACh level in culture medium at 10 to 20 uM incubated for 24 hrs by ELISA. In kind it is functional, cell-based. The following applies: dose 10-20 µM.
The test system of series [13] is SH-SY5Y. Kind of series: Neuroprotective activity against amyloid-beta (1 to 42)-induced human SH-SY5Y cells assessed as increase in ACh level in cell lysate at 10 to 20 uM incubated for 24 hrs by ELISA. In kind it is functional, cell-based. The settings on record: dose 10-20 µM. Background: ELISA stands for enzyme-linked immunosorbent assay.
Series [14] deals with SH-SY5Y. Kind of series: Neuroprotective activity against amyloid-beta (1 to 42)-induced human SH-SY5Y cells assessed as decrease in amyloid beta (1 to 42) level in culture medium at 10 to 20 uM incubated for 24 hrs by ELISA. The following applies: dose 10-20 µM. In kind it is functional, cell-based.
Series [15] has as its system SH-SY5Y. Kind of series: Neuroprotective activity against amyloid-beta (1 to 42)-induced human SH-SY5Y cells assessed as decrease in amyloid beta (1 to 42) level in cell lysate at 10 to 20 uM incubated for 24 hrs by ELISA. In kind it is functional, cell-based. The following applies: dose 10-20 µM.
Series [16] can be described thus: Permeability of compound incubated for 18 hrs by PAMPA-BBB based UV plate spectroscopic reader analysis. In kind it is ADME. The settings on record: read-out: permeability.
The nature of series [17]: Stability of compound in male ICR mouse brain at 100 uM, iv measured after 30 to 1440 mins by fluorescence microplate reader. The following applies: time 30-1440 min. In kind it is ADME, organism-based.
Series [18] is described as follows: Stability of compound at pH 12 measured within 3 mins by microplate reader analysis. In kind it is physicochemical. The following applies: buffer, pH 12, 0.05 h.
Series [19] in a line: Stability of compound in male ICR mouse brain at 100 uM, iv measured within 5 mins by fluorescence microplate reader. In kind it is ADME, organism-based.
Series [20] in a line: Stability of compound in male ICR mouse plasma at 100 uM, iv measured after 30 mins by fluorescence microplate reader. In kind it is ADME, organism-based. The following applies: 0.5 h.
A short description of series [21]: Drug accumulation in brain of APP/PS1 transgenic AD-mouse model at 100 uM, iv measured at 5 to 60 mins by fluorescence imaging analysis. The following applies: in vivo, time 5-60 min. In kind it is ADME, organism-based.
A short description of series [22]: Drug accumulation in brain of APP/PS1 transgenic AD-mouse model at 100 uM, iv measured after 24 hrs […] by fluorescence imaging analysis. In kind it is ADME, organism-based. The settings on record: in vivo.
The subject of series [23] is Mus musculus. The series can be described thus: Antialzheimer activity in APP/PS1 transgenic AD mouse model assessed as improvement in learning administered intravenously once every 2 days for 10 times followed by morris water maze training from day 21 to 25 and measured on day 26 by Morris water maze test. In kind it is functional, organism-based. The following applies: route iv, time 26.0 day.

Series [24] deals with Mus musculus. Kind of series: Antialzheimer activity in APP/PS1 transgenic AD mouse model assessed as improvement in memory administered intravenously once every 2 days for 10 times followed by morris water maze training from day 21 to 25 and measured on day 26 by Morris water maze test. In kind it is functional, organism-based. The following applies: route iv, time 26.0 day.

The subject of series [25] is Mus musculus. Kind of series: Antialzheimer activity in APP/PS1 transgenic AD mouse model assessed as improvement in learning administered intravenously once every 2 days for 10 times and measured on day 26 by Y maze test. In kind it is functional, organism-based. The settings on record: route iv, time 26.0 day.
In series [26] the test system is Mus musculus. Kind of series: Antialzheimer activity in APP/PS1 transgenic AD mouse model assessed as improvement in NC scores administered intravenously once every 2 days for 10 times and measured on day 27 by Nest construction test. In kind it is functional, organism-based. The following applies: route iv, time 27.0 day.
Series [27] can be described thus: Toxicity in APP/PS1 transgenic AD mouse model assessed as effect on body weight administered intravenously once every 2 days for 10 times and measured on day 30. The settings on record: in vivo, iv, 720 h, time 30 day.
Series [28] has as its system Mus musculus. The series can be described thus: Antialzheimer activity in APP/PS1 transgenic AD mouse model assessed as increase in ACh level administered intravenously once every 2 days for 10 times and measured on day 30 by ELISA. In kind it is functional, organism-based. The settings on record: route iv, time 30.0 day.
For series [29], the system named is Mus musculus. Kind of series: Antialzheimer activity in APP/PS1 transgenic AD mouse model assessed as decrease in amyloid beta (1 to 42) level administered intravenously once every 2 days for 10 times and measured on day 30 by ELISA. The following applies: route iv, time 30.0 day. In kind it is functional, organism-based.
Series [30] addresses T1, Cholinesterase. The series can be described thus: Binding affinity to BChE (unknown origin) in PBS assessed as red-shift in maximum absorption to 680 nm by UV/vis absorption analysis.
Series [31] addresses T1, Cholinesterase. Kind of series: Binding affinity to BChE (unknown origin) in PBS assessed as […] at 680 nm by UV/vis absorption analysis.
The target of series [32] is T1, Cholinesterase. Kind of series: Binding affinity to BChE (unknown origin) in PBS assessed as cyan coloured appearance of compound by UV/vis absorption analysis.
The target in series [33] is T1, Cholinesterase. Kind of series: Binding affinity to BChE (unknown origin) in PBS assessed as maximum emission wavelength at 710 nm by fluorescence spectra analysis.
Series [34] has as its target T1, Cholinesterase. Kind of series: Binding affinity to BChE (unknown origin) in PBS assessed as fold change in fluorescence intensity at 710 nm by fluorescence spectra analysis.
The nature of series [35]: Selectivity ratio of fluorescence intensity for binding affinity to AChE (unknown origin) in PBS to fluorescence intensity for binding affinity to BChE (unknown origin) in PBS.
Series [36] is filed under the species Homo sapiens. Kind of series: Binding affinity to ALP (unknown origin) by fluorescence analysis.
The species entered for series [37] is Homo sapiens. The series can be described thus: Binding affinity to carboxylesterase (unknown origin) by fluorescence analysis.
Series [38] is filed under the species Homo sapiens. Kind of series: Binding affinity to lysozyme (unknown origin) by fluorescence analysis.
The target in series [39] is T2, Acetylcholinesterase (Homo sapiens, UniProt P22303). Kind of series: Binding affinity to AChE (unknown origin) by fluorescence analysis.
Series [40] concerns the target T1, Cholinesterase. The series can be described thus: Binding affinity to BChE (unknown origin) assessed as enzyme mediated compound hydrolysis measured after 1 min by HPLC analysis relative to control. More on the design: scale not given: the % may be the effect or the level left.
In series [41] the target is T1, Cholinesterase. The series can be described thus: Binding affinity to BChE (unknown origin) assessed as enzyme mediated compound hydrolysis measured after 5 min by HPLC analysis relative to control. More on the design: scale not given: the % may be the effect or the level left.
In series [42] the target is T1, Cholinesterase. The series can be described thus: Binding affinity to BChE (unknown origin) in PBS assessed as maximum initial reaction rate by fluorometric method.
Series [43] concerns the target T1, Cholinesterase. The series can be described thus: Binding affinity to BChE (unknown origin) in PBS assessed as Michaelis-menten constant by fluorometric method.
Series [44] concerns the target Cholinesterase (Equus caballus, UniProt P81908). The series can be described thus: Stability of compound assessed as horse serum BChE-mediated compound hydrolysis by fluorescence based analysis. In kind it is ADME.
Series [45] deals with T2, Acetylcholinesterase. Kind of series: Stability of compound assessed as human serum AChE-mediated compound hydrolysis by fluorescence based analysis. In kind it is ADME.

The structures appear in SMILES notation. pIC50: −log10 of the molar value. The source made the active and inactive calls. The calls are words filed in the database; no cut-off is given here. Where only a bound is given, the exact number is not on record here.

This is an account of results in ChEMBL document CHEMBL5506010, “Butyrylcholinesterase-Activated Near-Infrared Fluorogenic Probe for In Vivo Theranostics of Alzheimer's Disease” (J Med Chem, 2024).

T1 sequence (P06276 whole entry): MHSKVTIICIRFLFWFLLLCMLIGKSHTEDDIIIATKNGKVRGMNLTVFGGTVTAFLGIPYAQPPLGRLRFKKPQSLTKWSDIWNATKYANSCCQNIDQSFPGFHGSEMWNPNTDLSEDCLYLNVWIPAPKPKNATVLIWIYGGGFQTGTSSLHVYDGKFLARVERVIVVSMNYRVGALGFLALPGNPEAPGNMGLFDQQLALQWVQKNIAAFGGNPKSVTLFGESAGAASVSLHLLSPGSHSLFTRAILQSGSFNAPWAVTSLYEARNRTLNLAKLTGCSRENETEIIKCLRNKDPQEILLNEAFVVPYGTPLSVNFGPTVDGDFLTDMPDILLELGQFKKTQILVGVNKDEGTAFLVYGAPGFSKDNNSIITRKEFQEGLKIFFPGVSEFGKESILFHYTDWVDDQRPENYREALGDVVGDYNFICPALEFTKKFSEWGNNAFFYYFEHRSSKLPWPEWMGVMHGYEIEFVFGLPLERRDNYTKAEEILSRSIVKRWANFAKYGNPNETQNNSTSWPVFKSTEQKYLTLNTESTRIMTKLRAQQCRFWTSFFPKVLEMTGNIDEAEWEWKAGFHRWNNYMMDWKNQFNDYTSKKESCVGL
T2 sequence (P22303 whole entry): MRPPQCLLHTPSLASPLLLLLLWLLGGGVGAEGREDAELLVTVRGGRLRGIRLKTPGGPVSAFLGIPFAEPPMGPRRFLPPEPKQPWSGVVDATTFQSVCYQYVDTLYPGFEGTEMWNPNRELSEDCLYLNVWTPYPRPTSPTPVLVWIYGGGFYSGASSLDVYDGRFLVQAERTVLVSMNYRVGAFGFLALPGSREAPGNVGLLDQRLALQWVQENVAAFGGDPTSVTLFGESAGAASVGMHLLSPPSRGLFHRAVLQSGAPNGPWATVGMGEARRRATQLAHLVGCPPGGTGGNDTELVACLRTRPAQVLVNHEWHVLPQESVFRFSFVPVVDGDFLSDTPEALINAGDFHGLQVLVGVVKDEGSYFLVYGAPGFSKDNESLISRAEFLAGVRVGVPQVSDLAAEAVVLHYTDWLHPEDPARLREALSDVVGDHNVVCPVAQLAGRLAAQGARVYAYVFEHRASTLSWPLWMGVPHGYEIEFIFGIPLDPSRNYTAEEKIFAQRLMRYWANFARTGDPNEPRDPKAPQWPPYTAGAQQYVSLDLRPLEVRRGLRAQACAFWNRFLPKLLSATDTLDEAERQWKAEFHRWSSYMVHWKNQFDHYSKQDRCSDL
Chain of Cholinesterase (Mus musculus) (Q03311 whole entry): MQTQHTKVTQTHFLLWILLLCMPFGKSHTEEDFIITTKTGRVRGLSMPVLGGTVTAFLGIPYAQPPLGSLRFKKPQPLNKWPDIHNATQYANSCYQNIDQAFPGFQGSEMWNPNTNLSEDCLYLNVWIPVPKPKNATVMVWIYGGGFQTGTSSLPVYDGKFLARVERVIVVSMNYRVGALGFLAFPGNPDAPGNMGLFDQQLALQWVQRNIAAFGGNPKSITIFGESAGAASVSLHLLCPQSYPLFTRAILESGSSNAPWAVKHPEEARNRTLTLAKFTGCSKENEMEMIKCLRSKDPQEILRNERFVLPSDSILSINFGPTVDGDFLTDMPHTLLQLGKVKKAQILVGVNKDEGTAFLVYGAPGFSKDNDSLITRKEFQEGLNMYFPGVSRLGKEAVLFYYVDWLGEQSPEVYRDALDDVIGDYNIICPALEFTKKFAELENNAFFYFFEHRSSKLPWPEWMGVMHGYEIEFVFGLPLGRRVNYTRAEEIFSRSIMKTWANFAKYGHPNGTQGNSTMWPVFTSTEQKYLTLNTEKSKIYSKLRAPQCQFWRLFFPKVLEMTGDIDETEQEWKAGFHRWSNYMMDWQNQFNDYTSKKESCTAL
Chain of Cholinesterase (Equus caballus, UniProt P81908) (P81908 whole entry): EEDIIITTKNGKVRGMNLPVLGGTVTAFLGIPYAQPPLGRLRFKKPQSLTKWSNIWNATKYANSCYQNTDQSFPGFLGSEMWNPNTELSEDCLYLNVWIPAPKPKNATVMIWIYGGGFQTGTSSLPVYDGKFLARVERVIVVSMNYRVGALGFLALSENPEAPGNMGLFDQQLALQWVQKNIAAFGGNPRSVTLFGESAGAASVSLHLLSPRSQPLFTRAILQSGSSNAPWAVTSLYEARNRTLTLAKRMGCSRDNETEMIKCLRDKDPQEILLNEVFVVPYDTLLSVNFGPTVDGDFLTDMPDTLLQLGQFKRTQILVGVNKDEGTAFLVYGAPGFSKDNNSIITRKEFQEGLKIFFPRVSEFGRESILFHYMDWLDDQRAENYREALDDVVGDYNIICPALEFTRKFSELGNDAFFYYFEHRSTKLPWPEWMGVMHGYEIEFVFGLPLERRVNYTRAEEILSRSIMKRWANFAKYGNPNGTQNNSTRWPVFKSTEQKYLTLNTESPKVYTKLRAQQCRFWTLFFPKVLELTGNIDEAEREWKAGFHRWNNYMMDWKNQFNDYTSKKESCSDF

As for `Nc1c2c(nc3ccccc13)CCCC2` [TACRINE], the Activity entry in [1] is on record as “Non-Toxic”.
One may read the pIC50 as the IC50 on a negative log10 scale, so that one unit is a factor of ten. In the case of `C#CCCC[N+]1=C(/C=C/C2=C3Oc4cc(OC(=O)C5CC5)ccc4C=C3CCC2)C(C)(C)c2ccccc21.[I-]`, the pIC50 against Cholinesterase [2] is < 4.00. In addition, the Stability result at Cholinesterase [3] is on record as “Stable”; in series [17] it was “Unstable”; in [18], “Unstable”; in [19] it was “Stable”; in series [20] it was “Stable”. In addition, the result (at Cholinesterase [4]; on Cholinesterase [5]; in series [6]; in the series on PC-12 [7]; in the series on PC-12 [9]; on Cholinesterase [30]) was Active. Besides, the result on Cholinesterase [31], on Cholinesterase [32] and at Cholinesterase [33] was Active. Further, the Activity entry was “Dose-Dependent Effect” in the series with PC-12 [8]; “Toxic” in series [1]; “Non-Toxic” in [27]; 50% on Cholinesterase [40]; > 90% on Cholinesterase [41]; 2.08 µM/min at Cholinesterase [42]. On Cholinesterase [43], the Activity turned out to be 9.07 µM. Moreover, the Drug uptake result in series [10] is “Not Active”; in [21] it was “Active”; in series [22] it was “Not Active”. Moreover, the outcome in the series on SH-SY5Y [11], in the series on SH-SY5Y [12], in the series on SH-SY5Y [13], with SH-SY5Y [14], in the series with SH-SY5Y [15] and in the series on Mus musculus [23] was inactive. The outcome with Mus musculus [24], in the series with Mus musculus [25], in the series with Mus musculus [26], in the series on Mus musculus [28], with Mus musculus [29] and in the series listed under Homo sapiens [36] was inactive. The result in the series listed under Homo sapiens [37], in the series filed under Homo sapiens [38] and on Acetylcholinesterase [39] was inactive. In series [16], the Papp at 18 h was found to be 5.97 ×10⁻⁶ cm/s. For the same compound, on Cholinesterase [34], the fold change (FC) stood at 21. The Selectivity ratio in [35] came to 31.4.
Regarding `C#CCCC[N+]1=C(/C=C/C2=C3Oc4cc(OC(C)=O)ccc4C=C3CCC2)C(C)(C)c2ccccc21.[I-]`, the Stability result on Cholinesterase [44] and on Acetylcholinesterase [45] was “Unstable” in each case.
Compound `CCN(CC)Cc1ccccc1CNC(=O)c1cccc(NC(=O)c2cccc(C(=O)O)c2)c1` showed a negative-log IC50 (pIC50) on Cholinesterase [2] of 8.91.
For the compound `CCN(CC)Cc1ccccc1CNC(=O)c1cccc(NC(=O)c2ccc(F)cc2)c1`, the Activity result in series [1] is listed as “Non-Toxic”.
